Test results from patent publication US9663449B2, “Lipid containing formulations” (ARBUTUS BIOPHARMA CORPORATION, priority 2006, dated 2017).

System: Factor VII
Assay: In vivo Factor VII silencing assay, serum Factor VII by chromogenic kit
Design: species or system C57BL/6 mice
Conditions: 2 mg/kg siRNA; FIG. 1; suggested, 5 tail and/or 6 tail, most abundant species in ND98 6:1 preparation
Method: Applicants have discovered that certain polyamine lipid moieties provide desirable properties for administration of nucleic acids, such as siRNA. For example, in some embodiments, a lipid moiety is complexed with a Factor VII-targeting siRNA and administered to an animal such as a mouse. The level of secreted serum Factor VII is then quantified (24 h post administration), where the degree of Factor VII silencing indicates the degree of in vivo siRNA delivery. Accordingly, lipids providing enhanced in vivo delivery of a nucleic acid such as siRNA are preferred. In particular, Applicants have discovered polyamines having substitutions described herein can have desirable properties for delivering siRNA, such as bioavailability, biodegradability, and tolerability.
C57BL/6 mice received tail vein injections of saline or various lipid formulations. Lipid-formulated siRNAs are administered at varying doses in an injection volume of 10 μL/g animal body weight. Twenty-four hours after administration, serum samples are collected by retroorbital bleed. Serum Factor VII concentrations are determined using a chromogenic diagnostic kit (Coaset Factor VII Assay Kit, DiaPharma) according to manufacturer protocols.
The effectiveness of lipid compositions can be tested by determining the relative ability of a lipid to deliver an siRNA moiety to a target. […]

`CCCCCCCCCCCCNC(=O)CCN(CCC(=O)NCCCCCCCCCCCC)CCN(CCC(=O)NCCCCCCCCCCCC)CCN(CCC(=O)NCCCCCCCCCCCC)CCN(CCC(=O)NCCCCCCCCCCCC)CCC(=O)NCCCCCCCCCCCC` [Compound 5] was tested. Which “FVII silencing, active lipid species” value did it give?
The value was “active species”.
